Entries after “also recorded” stand apart in the source; their conditions may differ. One block for each compound: values may come before it.
Key:
HDAC6 = molecular target: T1, HDAC6 (Homo sapiens, UniProt Q9UBN7); experiment: Inhibition of recombinant HDAC6; conditions: for Ratio: HDAC1/HDAC6: ratio of IC50 HDAC1 to IC50 HDAC6
T1 sequence (Q9UBN7 1-1215): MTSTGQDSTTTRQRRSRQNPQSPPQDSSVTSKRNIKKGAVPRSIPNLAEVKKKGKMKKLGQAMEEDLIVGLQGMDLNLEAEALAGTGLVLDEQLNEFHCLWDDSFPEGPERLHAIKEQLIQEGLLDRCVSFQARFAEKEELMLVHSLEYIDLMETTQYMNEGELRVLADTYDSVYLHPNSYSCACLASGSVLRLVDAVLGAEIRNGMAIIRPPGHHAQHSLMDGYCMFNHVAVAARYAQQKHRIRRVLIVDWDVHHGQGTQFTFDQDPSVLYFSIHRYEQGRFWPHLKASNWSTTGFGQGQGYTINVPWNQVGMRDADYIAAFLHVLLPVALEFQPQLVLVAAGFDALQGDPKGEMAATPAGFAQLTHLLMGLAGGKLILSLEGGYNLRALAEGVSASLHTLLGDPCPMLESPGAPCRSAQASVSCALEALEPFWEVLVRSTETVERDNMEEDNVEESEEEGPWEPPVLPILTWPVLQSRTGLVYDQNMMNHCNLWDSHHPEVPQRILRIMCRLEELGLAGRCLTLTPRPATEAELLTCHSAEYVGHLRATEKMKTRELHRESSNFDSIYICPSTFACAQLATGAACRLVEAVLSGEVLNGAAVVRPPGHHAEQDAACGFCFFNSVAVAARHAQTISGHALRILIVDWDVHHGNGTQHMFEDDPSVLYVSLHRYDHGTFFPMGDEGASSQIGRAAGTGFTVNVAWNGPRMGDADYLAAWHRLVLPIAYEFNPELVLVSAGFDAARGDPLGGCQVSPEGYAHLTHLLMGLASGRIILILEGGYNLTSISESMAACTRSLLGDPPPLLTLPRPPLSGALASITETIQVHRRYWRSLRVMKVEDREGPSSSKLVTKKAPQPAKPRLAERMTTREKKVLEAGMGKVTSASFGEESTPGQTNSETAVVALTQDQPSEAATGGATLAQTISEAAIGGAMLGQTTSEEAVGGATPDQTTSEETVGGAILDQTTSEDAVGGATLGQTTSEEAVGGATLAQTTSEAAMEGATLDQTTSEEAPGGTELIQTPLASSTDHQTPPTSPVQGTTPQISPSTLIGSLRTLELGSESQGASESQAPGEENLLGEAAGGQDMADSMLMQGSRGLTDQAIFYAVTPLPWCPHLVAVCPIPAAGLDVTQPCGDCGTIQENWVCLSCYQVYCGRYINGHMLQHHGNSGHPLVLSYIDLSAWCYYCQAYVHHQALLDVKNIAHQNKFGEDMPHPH

[1] = tested on: LNCaP (human prostate adenocarcinoma) cells; experiment: Cell growth and viability of LNCaP cells; format: cell-based; conditions: SAHA control
Description: FIG. 3. Cell growth of HFS (normal) and LNCaP (transformed) cells treated with compound 8 over 72 h.
FIG. 4. Cell viability of HFS (normal) and LNCaP (transformed) cells treated with compound 8 over 72 h.
(§1) Recombinant HDAC1 and HDAC6 are used to evaluate the selective inhibitory potency of each compound. Cell based assays: Normal cells (Human Foreskin Fibroblast cells), LNCaP (human prostate cancer cells), MCF-7 (human breast cancer cells, A549 (human adenocarcinoma of lung cells) and ARP-1 (human multiple myeloma cells) are used in these assays. Cells were cultured for up to 72 hr without and with the potential HDAC6-selective inhibitor. SAHA was used as a control. Cell number and cell viability were determined by enumeration. Proteins were extracted from cells and assayed for accumulation of acetylated tubulin and acetylated histones. All methods are described in Namdar et al., PNAS, 2010, 107:20003-8. In vivo animal studies: Potential HDAC6 inhibitor compounds are further assayed by administration to mice for up to 5 days with daily injections. Animals are sacrificed and tissues are analyzed for accumulation of acetylated tubulin and acetylated histones.
The effect of compound 8 on the cell growth and viability of normal (HFS, human foreskin fibroblast) and transformed (LNCaP, human prostate adenocarcinoma) cells cultured with 8, 16, 32 or 64 μM HPB for up to 72 h was evaluated.

[2] = tested on: acetylated alpha-tubulin and acetylated histone H3 in LNCaP (human prostate cancer cells); conditions: SAHA; literature cited, cells not given; cited from earlier work
HDAC1 = HDAC1 (Homo sapiens, UniProt Q13547); experiment: Inhibition of recombinant HDAC1; format: biochemical; conditions: read-out: IC50 (nM) HCAC1
HDAC1, sequence (Q13547 whole entry): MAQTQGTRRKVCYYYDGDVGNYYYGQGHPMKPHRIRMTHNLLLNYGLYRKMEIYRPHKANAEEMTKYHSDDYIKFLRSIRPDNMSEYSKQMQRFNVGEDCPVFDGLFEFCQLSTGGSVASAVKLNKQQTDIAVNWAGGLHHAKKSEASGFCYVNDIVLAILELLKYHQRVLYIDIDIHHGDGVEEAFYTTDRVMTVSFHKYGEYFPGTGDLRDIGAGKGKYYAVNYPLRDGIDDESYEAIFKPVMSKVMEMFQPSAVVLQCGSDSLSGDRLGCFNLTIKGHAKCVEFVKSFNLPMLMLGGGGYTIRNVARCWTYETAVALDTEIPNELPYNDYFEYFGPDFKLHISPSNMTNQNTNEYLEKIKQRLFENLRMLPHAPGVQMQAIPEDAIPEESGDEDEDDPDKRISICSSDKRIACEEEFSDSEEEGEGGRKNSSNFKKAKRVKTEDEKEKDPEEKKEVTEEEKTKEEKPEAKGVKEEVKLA

[3] = tested on: androgen-dependent CWR22 human prostate cancer xenograft; experiment: CWR22 human prostate cancer xenograft in nude mice; format: in vivo; conditions: 21 days; daily 300 mg/kg compound 8 or weekly 3 mg/kg etoposide alone
[4] = tested on: acetylated alpha-tubulin and histones in CWR22 tumors and spleen; experiment: Acetylated lysine patterns in CWR22 tumors and spleen; format: in vivo, nude mice
Text: Tumors and spleen are removed from the animals, and histones and proteins are extracted for the detection of acetylated lysine patterns.

[5] = tested on: acetylated alpha-tubulin and acetylated histone H3 in LNCaP (human prostate cancer cells); experiment: Accumulation of acetylated proteins in LNCaP cells (western blot); format: cell-based; conditions: LNCaP cells, FIG. 2
Description: FIG. 2. Blot showing accumulation of acetylated alpha-tubulin and acetylated histone H3 in LNCaP (human prostate cancer cells) cultured with compounds 8 or 11. GADPH used as loading control.
FIG. 5. Western blots of acetylated alpha-tubulin (Acet-Tub) and acetylated histone H3 (Acet-H3) in HFS (normal) and LNCaP (transformed) cells treated with compound 8 at 8, 16, 32, and 64 μM for 24 h. Western blots of GAPDH and total histone H3 (Total-H3) are loading controls.
as §1

SMILES: O=C(CCCCCCC(=O)Nc1ccccc1)NO [SAHA, suberoylanilide hydroxamic acid, reference compound]
- Ratio: HDAC1/HDAC6 (HDAC6): 3.09
- death of LNCaP cells [1]: kills LNCaP cells
- accumulation of acetylated alpha-tubulin [2]: induced the accumulation of acetylated alpha-tubulin and histone H3
- accumulation of acetylated histone H3 [2]: induced the accumulation of acetylated alpha-tubulin and histone H3

- IC50 (HDAC1): 193 nM
SMILES: O=C(CCCCCCC(=O)Nc1ccc([C@H]2O[C@@H](CSc3nc(-c4ccccc4)c(-c4ccccc4)o3)C[C@@H](c3ccc(CO)cc3)O2)cc1)NO [Tubacin, reference compound]

- weight loss, single agent [3]: no weight loss
SMILES: COc1cc([C@@H]2c3cc4c(cc3[C@@H](O[C@@H]3O[C@@H]5CO[C@@H](C)O[C@H]5[C@H](O)[C@H]3O)[C@H]3COC(=O)[C@H]23)OCO4)cc(OC)c1O [etoposide, reference compound]
- growth of established CWR22 tumors, single agent [3]: no significant suppression of the growth
- accumulation of histones in tumors, single agent ([4]; mice injected with compound 8 alone or etoposide): Increased levels of accumulation of histones
- accumulation of acetylated alpha-tubulin in CWR22 tumors and spleen, single agent ([4]; mice treated with compound 8 or etoposide): increased accumulation of acetylated alpha-tubulin

- IC50 (HDAC6): 11 nM
- Ratio: HDAC1/HDAC6 (HDAC6): 24.54
- IC50 (HDAC1): 270 nM
SMILES: O=C(NO)c1ccc(CN(CCO)C(=O)c2ccccc2)cc1 [Compound 11, N-hydroxy-4-((N-(2-hydroxyethyl)-2-benzamido)methyl)benzamide]
- accumulation of acetylated histones (H3) [5]: did not cause accumulation of actylated histones; also recorded: without induction of H3 acetylation
- accumulation of acetylated α-tubulin [5]: caused the accumulation of acetylated α-tubulin; also recorded: significant levels of tubulin acylation were present
